Experimental data: ChEMBL document CHEMBL5316299, “Discovery of Novel Drug-like PHGDH Inhibitors to Disrupt Serine Biosynthesis for Cancer Therapy” (J Med Chem, 2023); call rule not given here

Tests used:
[1] = molecular target: T1, D-3-phosphoglycerate dehydrogenase (Homo sapiens, UniProt O43175); test: Binding affinity to his-tagged PHGDH ([…] residues) (unknown origin) assessed as dissociation constant by SPR analysis
T1 sequence (O43175 whole entry): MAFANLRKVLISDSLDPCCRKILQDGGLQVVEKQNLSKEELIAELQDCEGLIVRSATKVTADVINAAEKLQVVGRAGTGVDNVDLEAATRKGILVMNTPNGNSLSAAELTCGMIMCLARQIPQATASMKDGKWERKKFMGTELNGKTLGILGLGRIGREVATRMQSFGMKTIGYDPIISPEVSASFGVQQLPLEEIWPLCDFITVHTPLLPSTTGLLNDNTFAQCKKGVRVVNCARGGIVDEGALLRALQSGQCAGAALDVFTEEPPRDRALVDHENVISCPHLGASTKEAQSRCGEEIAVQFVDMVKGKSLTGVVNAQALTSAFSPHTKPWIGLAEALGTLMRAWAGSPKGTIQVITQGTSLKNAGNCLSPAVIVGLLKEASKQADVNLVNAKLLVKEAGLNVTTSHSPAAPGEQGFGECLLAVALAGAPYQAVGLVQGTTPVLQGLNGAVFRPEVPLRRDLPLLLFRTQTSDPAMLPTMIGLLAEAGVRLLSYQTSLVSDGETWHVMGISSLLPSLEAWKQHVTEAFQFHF

HCT-116 = test: Antiproliferative activity against human HCT-116 cells expressing PHGDH assessed as reduction in cell viability measured for 72 hrs by CCK-8 assay; assay type: functional, cell-based; details: HCT-116, 72 h
[2] = Toxicity in BALB/c nude mouse xenografted with human PC-9 cells assessed as abnormalities in liver at 25 mg/kg, ip administered every day for 31 days by H and E staining based assay; assay type: organism-based; details: in vivo, 744 h, time 31 day
[3] = Microsomal stability in human liver microsomes assessed as intrinsic clearance measured upto 60 mins by HPLC-MS/MS analysis; assay type: ADME, Microsome; details: 1 h
[4] = AUClast in ICR mouse at 3 mg/kg, po measured for 0.25 to 24 hrs by UPLC-MS/MS analysis; assay type: ADME, organism-based; design: dose 3 mg/kg, time 0.25-24 hrs, route po; details: in vivo
[5] = Half life in ICR mouse at 3 mg/kg, po measured for 0.25 to 24 hrs by UPLC-MS/MS analysis; assay type: ADME, organism-based; details: in vivo, time 0.25-24 hrs
[6] = Microsomal stability in rat liver microsomes assessed as intrinsic clearance measured upto 60 mins by HPLC-MS/MS analysis; assay type: ADME, Microsome; details: 1 h
[7] = Microsomal stability in human liver microsomes assessed as half life measured upto 60 mins by HPLC-MS/MS analysis; assay type: ADME, Microsome
[8] = Observed clearance in ICR mouse at 1 mg/kg, iv measured for 0.05 to 24 hrs by UPLC-MS/MS analysis; assay type: ADME, organism-based; details: in vivo, time 0.05-24 hrs
[9] = molecular target: T1, D-3-phosphoglycerate dehydrogenase; test: Inhibition of PHGDH (unknown origin) preincubated for 30 mins followed by substrate addition and measured after 5 mins
[10] = Toxicity in BALB/c nude mouse xenografted with human PC-9 cells assessed as abnormalities in lung at 25 mg/kg, ip administered every day for 31 days by H and E staining based assay; assay type: organism-based; details: in vivo, 744 h, time 31 day
[11] = Microsomal stability in rat liver microsomes assessed as half life measured upto 60 mins by HPLC-MS/MS analysis; assay type: ADME, Microsome
[12] = molecular target: T1, D-3-phosphoglycerate dehydrogenase; test: Inhibition of wild type PHGDH (unknown origin) preincubated for 30 mins followed by substrate addition and measured after 5 mins
[13] = Tmax in ICR mouse at 3 mg/kg, po measured for 0.25 to 24 hrs by UPLC-MS/MS analysis; assay type: ADME, organism-based; details: in vivo, time 0.25-24 hrs
[14] = Drug exposure in BALB/c nude mouse tumor at 50 mg/kg, ip measured for 0.5 to 4 hrs; assay type: ADME, organism-based; details: in vivo, time 0.5-4 hrs
MDA-MB-468 = test: Antiproliferative activity against human MDA-MB-468 cells expressing PHGDH assessed as reduction in cell viability measured for 72 hrs by CCK-8 assay; assay type: functional, cell-based; details: MDA-MB-468, 72 h
[15] = Toxicity in BALB/c nude mouse xenografted with human PC-9 cells assessed as loss of body weight at 25 mg/kg, ip administered every day for 31 days; assay type: organism-based; details: in vivo, 744 h, time 31 day
[16] = Drug exposure in BALB/c nude mouse plasma at 25 mg/kg, ip measured for 0.5 to 4 hrs; assay type: ADME, organism-based; details: in vivo, time 0.5-4 hrs
PC-9 [17] = test: Antitumor activity against human PC-9 cells xenografted in BALB/c nude mouse assessed as tumor growth inhibition at 25 mg/kg, ip administered every day for 31 days by digital vernier caliper analysis; assay type: functional; details: time 31 day
[18] = Half life in ICR mouse at 1 mg/kg, iv measured for 0.05 to 24 hrs by UPLC-MS/MS analysis; assay type: ADME, organism-based; details: in vivo, time 0.05-24 hrs
[19] = Microsomal stability in mouse liver microsomes assessed as intrinsic clearance measured upto 60 mins by HPLC-MS/MS analysis; assay type: ADME, Microsome; details: 1 h
[20] = AUClast in ICR mouse at 1 mg/kg, iv measured for 0.05 to 24 hrs by UPLC-MS/MS analysis; assay type: ADME, organism-based; design: time upper 24 hrs, dose 1 mg/kg, time lower 0.05 hrs, route iv; details: in vivo
[21] = Oral bioavailability in ICR mouse at 3 mg/kg measured for 0.25 to 24 hrs by UPLC-MS/MS analysis; assay type: ADME, organism-based; details: in vivo, time 0.25-24 hrs
[22] = molecular target: T1, D-3-phosphoglycerate dehydrogenase; test: Competitive inhibition of PHGDH (unknown origin) assessed as inhibition constant using 3-PG as substrate preincubated for 30 mins followed by substrate addition and measured after 5 mins by Lineweaver-Burk plot analysis
[23] = Cmax in ICR mouse at 3 mg/kg, po measured for 0.25 to 24 hrs by UPLC-MS/MS analysis; assay type: ADME, organism-based; design: dose 3 mg/kg, time 0.25-24 hrs, route po; details: in vivo
MCF-10A = test: Antiproliferative activity against human MCF-10A cells assessed as reduction in cell viability measured for 72 hrs by CCK-8 assay; assay type: functional, cell-based
[24] = Toxicity in BALB/c nude mouse xenografted with human PC-9 cells assessed as abnormalities in kidney at 25 mg/kg, ip administered every day for 31 days by H and E staining based assay; assay type: organism-based; details: in vivo, 744 h, time 31 day
MCF7 = test: Antiproliferative activity against human MCF7 cells assessed as reduction in cell viability measured for 72 hrs by CCK-8 assay; assay type: functional, cell-based; details: MCF7, 72 h
[25] = molecular target: T1, D-3-phosphoglycerate dehydrogenase; test: Competitive inhibition of PHGDH (unknown origin) assessed as inhibition constant using NAD+ as substrate preincubated for 30 mins followed by substrate addition and measured after 5 mins by Lineweaver-Burk plot analysis
PANC-1 = test: Antiproliferative activity against human PANC-1 cells assessed as reduction in cell viability measured for 72 hrs by CCK-8 assay; assay type: functional, cell-based; details: PANC-1, 72 h
[26] = molecular target: D-3-phosphoglycerate dehydrogenase (Homo sapiens, UniProt O43175, D175A); test: Inhibition of PHGDH D175A mutant (unknown origin) preincubated for 30 mins followed by substrate addition and measured after 5 mins
D-3-phosphoglycerate dehydrogenase (Homo sapiens, UniProt O43175, D175A), sequence (O43175 2-533 D175A limits assumed): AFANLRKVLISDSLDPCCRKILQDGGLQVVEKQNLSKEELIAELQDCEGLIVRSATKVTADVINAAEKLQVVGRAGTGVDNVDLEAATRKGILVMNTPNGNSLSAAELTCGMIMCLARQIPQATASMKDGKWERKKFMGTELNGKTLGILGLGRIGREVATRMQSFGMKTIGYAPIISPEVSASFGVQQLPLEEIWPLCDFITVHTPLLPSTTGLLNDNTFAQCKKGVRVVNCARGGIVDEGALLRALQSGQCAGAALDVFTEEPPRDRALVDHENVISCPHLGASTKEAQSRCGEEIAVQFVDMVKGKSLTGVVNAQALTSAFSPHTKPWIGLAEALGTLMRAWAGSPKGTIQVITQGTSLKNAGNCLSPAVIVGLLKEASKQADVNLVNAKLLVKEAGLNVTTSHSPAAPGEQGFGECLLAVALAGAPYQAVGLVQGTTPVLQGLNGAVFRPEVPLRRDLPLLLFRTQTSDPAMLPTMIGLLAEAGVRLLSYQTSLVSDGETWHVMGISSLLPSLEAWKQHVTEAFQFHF

PC-9 [27] = test: Antitumor activity against human PC-9 cells xenografted in BALB/c nude mouse assessed as tumor growth inhibition at 12.5 mg/kg, ip administered every day for 31 days by digital vernier caliper analysis; assay type: functional; details: time 31 day
BT-20 = test: Antiproliferative activity against human BT-20 cells expressing PHGDH assessed as reduction in cell viability measured for 72 hrs by CCK-8 assay; assay type: functional, cell-based; details: BT-20, 72 h
NCI-H1975 = test: Antiproliferative activity against human NCI-H1975 cells expressing PHGDH assessed as reduction in cell viability measured for 72 hrs by CCK-8 assay; assay type: functional, cell-based; details: NCI-H1975, 72 h
ZR-75-1 = test: Antiproliferative activity against human ZR-75-1 cells assessed as reduction in cell viability measured for 72 hrs by CCK-8 assay; assay type: functional, cell-based; details: ZR-75-1, 72 h
[28] = Microsomal stability in mouse liver microsomes assessed as half life measured upto 60 mins by HPLC-MS/MS analysis; assay type: ADME, Microsome
[29] = molecular target: T1, D-3-phosphoglycerate dehydrogenase; test: Binding affinity to PHGDH (unknown origin) assessed as dissociation constant incubated for 60 mins by microscale thermophoresis analysis
PC-9 [30] = test: Antiproliferative activity against human PC-9 cells expressing PHGDH assessed as reduction in cell viability measured for 72 hrs by CCK-8 assay; assay type: functional, cell-based; details: PC-9, 72 h
HCC827 = test: Antiproliferative activity against human HCC827 cells expressing PHGDH assessed as reduction in cell viability measured for 72 hrs by CCK-8 assay; assay type: functional, cell-based; details: HCC827, 72 h
NCI-H23 = test: Antiproliferative activity against human NCI-H23 cells assessed as reduction in cell viability measured for 72 hrs by CCK-8 assay; assay type: functional, cell-based; details: NCI-H23, 72 h
MDA-MB-231 = test: Antiproliferative activity against human MDA-MB-231 cells assessed as reduction in cell viability measured for 72 hrs by CCK-8 assay; assay type: functional, cell-based; details: MDA-MB-231, 72 h

In the case of `CC(=O)c1cccc(NS(=O)(=O)c2ccc(C(=O)Nc3nc(-c4cccc(F)c4)cs3)cc2)c1`, the Kd [1] is reported as 2.48 µM, the IC50 (HCT-116) is reported as 9.6 µM and the Activity [2] is reported as “Non-Toxic”. The CLH [3] was 19.8 mL/min/g, the AUClast [4] was 94386 ng·mL·h and the half-life [5] was 4.74 h. The CLH [6] was 56.6 mL/min/g, the half-life [7] was 1.77 h and the clearance [8] was 0.48 mL/min/kg. For the same compound, the IC50 [9] was 2.8 µM, the Activity [10] was “Non-Toxic” and the half-life [11] was 0.618 h. The IC50 [12] was 2.8 µM, the Tmax [13] was 3.33 h and the Drug uptake [14] was “Active”. The IC50 (MDA-MB-468) was 5.3 µM, the Activity [15] was “Non-Toxic” and the concentration [16] was 30.8 µM. For the same compound, the TGI (PC-9 [17]) was 68.9%, the half-life [18] was 4.94 h and the CLH [19] was 24.1 mL/min/g. It also gave an AUClast [20] of 38358 ng·mL·h, a bioavailability [21] of 82% and a Ki [22] of 14.9 µM. For the same compound, the Cmax [23] was 8840 ng/mL, the IC50 (MCF-10A) was 52.9 µM and the Activity [24] was “Non-Toxic”. The IC50 (MCF7) was 39.2 µM, the Ki [25] was 15.2 µM and the IC50 (PANC-1) was 36.6 µM. It also gave an IC50 [26] greater than 50 µM, a TGI (PC-9 [27]) of 41.4% and an IC50 (BT-20) of 5.3 µM. The IC50 (NCI-H1975) was 6.2 µM, the IC50 (ZR-75-1) was 38.3 µM and the half-life [28] was 1.45 h. It also gave a Kd [29] of 2.33 µM, an IC50 (PC-9 [30]) of 3.5 µM and an IC50 (HCC827) of 21.6 µM. For the same compound, the IC50 (NCI-H23) was 28.6 µM and the IC50 (MDA-MB-231) was 37.1 µM.
